Results as given in patent publication US20180344725A1, “QUINOLONE CHALCONE COMPOUNDS AND USES THEREOF” (priority 2015, published 2018).

Key:
purified porcine tubulin = experiment: Microtubule polymerization assay; format: biochemical; conditions: 1.0 mM GTP, 1 hour at 37° C.
Experimental: The effects of the tested CTR compounds of the present disclosure on the assembly of purified tubulin were determined using a tubulin polymerization kit according to the manufacturer's instructions (Cytoskeleton Inc., Denver, Colo.). Paclitaxel (provided in the same kit), nocodazole, and colchicine (Santa Cruz, Calif.) were used as controls for the assay. The absorbent-based assay kit is based on the principle that the light scattered by the microtubules is directly proportional to the polymer mass of the microtubules when measured at 37° C. at a wavelength of 340 nm. The fluorescence-based assay kit is on the principle that fluorescent reporter molecules are incorporated into microtubules as the polymerization process being occurred. The fluorescence enhancement was measured for one hour at one-minute intervals, at the excitation of 350 nm and the emission of 430 nm. Absorbance or fluorescence was measured with an automated plate reader (Synergy H4 Hybrid Multi-Mode Microplate Reader, Bio-Tek).

H69AR = experiment: SRB-based cytotoxicity assay; format: cell-based, human; conditions: for Resistance (fold): H69AR versus SW-1271; for IC50: Homo sapiens, H69AR, multidrug-resistant
Experimental: 1845B5 and MCF-10A non-cancer breast cell lines were cultured in DME/F12 medium supplemented with 10% fetal bovine serum, antibiotics and growth factors. […] The human small cell lung carcinoma H69 cell line and its multidrug-resistant MRP1-overexpressing isogenic H69AR cell line were purchased from ATCC. […] H69 cells grow as large multi-cell aggregates, making it difficult to accurately count cell numbers. […] The IL-6 dependent bortezomib-resistant ANBL6-BR cell line was further supplemented with 1 ng/ml of IL-6. The MCF10AT1 and MCF10CA1a cell lines are isogenic to the MCF10A cell line, and obtained from Dr. Valerie Weaver at the Center for Bioengineering and Tissue Regeneration, UCSF, CA, USA. […] The drug-resistant cells were cultured in the absence of drug for at least one passage before carrying out experiments. All cells were maintained in a humidified incubator at 37° C. […] Cell line authentication was performed using short tandem repeat (STR) profiling. […] Some wells were treated with 100 μl of 10% trichloroacetic acid (TCA) as a negative control and sham (medium with dimethyl sulfoxide; DMSO) treated cells were used as a positive control. […] TCA was removed and cells were washed with cold tap water, and plate was air-dried, followed by addition of 50 μl of 0.4% SRB staining solution to each well. After 30 minutes incubation, SRB staining solution was removed. Cells were washed with 1% acetic acid solution, and then washed with tap water to remove unbound staining solution, followed by air-drying. 200 μl of 10 mM (pH10.5) trizma base buffer was added to each well to solubilise macromolecules. […] Cell growth (inhibition) was calculated by the following formula: % cells proliferation=[(AT-CT)/(ST-CT)]×100 wherein AT=absorbance of treated cells, CT=absorbance of negative control cells, and ST=absorbance of sham treated cells. […] CI values were determined from four independent experiments.

Liver mitotic cells = format: in vivo, mice; conditions: 30 days; 10 mg paclitaxel, 30 mg CTR, or paclitaxel (5 mg) + CTR (15 mg)
Experimental: ATH490 athymic mice were treated as indicated in the listed concentrations for 30 days (FIG. 45A), and then the liver cell proliferation analyzed by examining the number of mitotic cells (white arrows in FIG. 45A). “Tax” denotes paclitaxel. The numbers in the brackets in (FIG. 45B) are mg/kg body weight. […] However, this small increase is considered normal as the AST/ALT ratio is <3 (Table 14).

[1] = Liver toxicity by AST and ALT; format: in vivo, mice; conditions: serum
Experimental: For paclitaxel treatments, 40 mg/ml stock solution of paclitaxel (Sigma, MO) was prepared in DMSO. […] Alanine transaminase (ALT, SUP6001-c)/Aspartate transaminase (AST, SUP6002-c) color endpoint assay kits were purchased from ID Labs Biotechnology (London, Ontario, Canada). Elevation of ALT and AST levels in serum samples was used as an indicator of liver damage/injury. Animals were monitored for food and water consumption every day, and their body weights and tumor volumes were measured twice per week. […] Blood samples were collected via cardiac puncture and processed further for ALT and AST measurements. The animals were then immediately euthanized by carbon dioxide. […] The paraffin-embedded blocks were then cut into 4-5 μm thick sections. Each section of tumors and organs was stained with hematoxylin and eosin (H&E). Changes in body weight, hemoglobin (Hb) and the amount and ratio of alanine transaminase (ALT)/aspartate transaminase (AST) were used to measure toxic effects. In addition, vital organs (liver, spleen, kidney and lung) were analyzed by […] after they were harvested, fixed, processed, paraffin-embedded, sectioned, and stained as described above.

RPMI-8226BTZR = experiment: Killing of bortezomib-resistant multiple myeloma cells; format: cell-based
Excerpt: The RPMI-8226BTZR over-expresses β1, β2 and β5 peptides of the 20S subunit. […] However, RPMI-8226BTZR is sensitive to CTR-20, CTR-21 and CTR-32 (FIG. 36).

[2] = Paclitaxel 10 mg/kg, CTR 30 mg/kg, or Paclitaxel (5) + CTR (15)

| Structure (SMILES) | effect on tubulin/microtubule polymerization (purified porcine tubulin) | Resistance (fold) (H69AR) | IC50 (H69AR) | mitotic index in the liver (Liver mitotic cells) | ALT (IU/L) ([1]; CTR 20 mg/kg) | AST (IU/L) ([1]; CTR 20 mg/kg) | ALT (IU/L) [1, 2] | AST (IU/L) [1, 2] | sensitivity of RPMI-8226BTZR (RPMI-8226BTZR) |
| --- | --- | --- | --- | --- | --- | --- | --- | --- | --- |
| COc1ccc2[nH]c(=O)c(/C=C/C(=O)c3ccccc3OC)cc2c1 [CTR-20, (E)-6-Methoxy-3-(3-(2-methoxyphenyl)-3-oxoprop-1-enyl) quinolin-2(1H)-one] | inhibited tubulin polymerization | 0.13 fold | 0.13 ± 0.01 µM | small increases in the mitotic index | 56.77 ± 5.34 IU/L | 119.19 ± 4.03 IU/L | 50.50 ± 9.96 IU/L | 118.22 ± 17.00 IU/L | sensitive |
| COc1ccccc1C(=O)/C=C/c1cc2ccccc2[nH]c1=O [CTR-17, (E)-3-(3-(2-Methoxyphenyl)-3-oxoprop-1-enyl)quinolin-2(1H)-one] | inhibited tubulin polymerization | 0.45 fold | 0.52 ± 0.1 µM | small increases in the mitotic index | 63.59 ± 9.73 IU/L | 101.00 ± 10.19 IU/L | 64.67 ± 5.26 IU/L | 114.13 ± 6.36 IU/L | – |
| CCOc1ccccc1C(=O)/C=C/c1cc2ccccc2[nH]c1=O [CTR-32, (E)-3-(3-(2-ethoxyphenyl)-3-oxoprop-1-enyl)quinolin-2(1H)-one] | microtubule polymerization inhibitors | – | – | – | – | – | – | – | sensitive |
| CC(=O)O[C@H]1C(=O)[C@@]2(C)[C@H]([C@H](OC(=O)c3ccccc3)[C@]3(O)C[C@H](OC(=O)[C@H](O)[C@@H](NC(=O)c4ccccc4)c4ccccc4)C(C)=C1C3(C)C)[C@]1(OC(C)=O)CO[C@@H]1C[C@@H]2O [Paclitaxel, reference compound] | – | 2.44 fold | – | small increases in the mitotic index | – | – | 52.02 ± 2.59 IU/L | 111.14 ± 13.42 IU/L | – |
| COc1ccccc1C(=O)/C=C/c1cc2cccc(OC)c2[nH]c1=O [CTR-21, (E)-8-methoxy-3-(3-(2-methoxyphenyl)-3-oxoprop-1-enyl) quinolin-2(1H)-one] | microtubule polymerization inhibitors | – | – | – | – | – | – | – | sensitive |
